# Experimental data published in article PMC6556873, “Rapid Covalent-Probe Discovery by Electrophile-Fragment Screening” (Journal of the American Chemical Society, 2019).
# Where two headings read alike, the source gives them in different places.
# Legend:
# PCAF = target: T1, PCAF (Homo sapiens, UniProt Q92831); parameters: Intact protein LC/MS covalent labelling, fragments in pools of five, 200 uM each, 4 °C; details: 24 h, 4 °C, pool of five; 200 µM; covalent
# T1 construct: gene KAT2B
# Method: (§1) Incubations were performed at 200 μM for each compound and 2 μM of protein (10 μM for BSA) for 24 h at 4 °C with moderate shaking. Incubation buffers varied among proteins (PBS pH 7.4 for QSOX1 and BSA; 10 mM HEPES pH 7.5, 0.3 M NaCl, 0.5 mM TCEP for PCAF, UPS8, and NUDT7; […]; 10 mM Na2HPO4 pH 7.5 100 mM NaCl 5 mM β-mercaptoethanol for NV3CP; 20 mM Na phosphate pH 7.5 for NNMT; […]. The reaction was stopped by quenching with formic acid, 0.4% final concentration. Each protein was incubated with the electrophilic library in pools of five compounds per well. The pool’s composition maximized the difference in mass between fragments in the same well. Incubations were performed with each fragment at 200 μM, for 24 h at 4 °C, to allow the screening of proteins that are not stable for long time periods at higher temperatures. Following incubation, we used intact protein [compound left out] chromatography/mass spectrometry (LC/MS) to identify the fragments and quantify their labeling (Figure 3A). […] There was good agreement between the percent of labeling of NUDT7 by 100 random individual compounds and that obtained in pools of five (R^2=0.78; Figure S6 and Data set 2 in the Supporting Information).
# OTUB2 (OTUB2A) = target: T2, OTUB2 (OTUB2A) (Homo sapiens, UniProt Q96DC9); parameters: Intact protein LC/MS covalent labelling, fragments in pools of five, 200 uM each, 4 °C; details: 24 h, 4 °C, pool of five; 200 µM; covalent
# T2 construct: full length residues 1-234, E. coli BL21(DE3)-R3, His tag removed by TEV, construct 27312 Da
# T2 sequence (Q96DC9 1-234): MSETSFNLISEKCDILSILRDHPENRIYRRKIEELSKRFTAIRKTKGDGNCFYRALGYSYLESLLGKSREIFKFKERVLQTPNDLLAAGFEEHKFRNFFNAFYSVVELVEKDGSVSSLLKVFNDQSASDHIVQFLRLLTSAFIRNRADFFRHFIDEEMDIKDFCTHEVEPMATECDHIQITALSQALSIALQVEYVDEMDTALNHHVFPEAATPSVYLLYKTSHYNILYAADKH
# Method: as §1
# NUDT7 = target: T3, NUDT7 (Homo sapiens, UniProt P0C024); parameters: Intact protein LC/MS covalent labelling, fragments in pools of five, 200 uM each, 4 °C; details: 24 h, 4 °C, pool of five; 200 µM; covalent
# T3 construct: residues 14-235, E. coli, pNIC28-Bsa4, N-terminal His6 tag removed by TEV, construct 26672 Da
# Method: as §1
# BSA = target: T4, BSA (Bos taurus, UniProt P02769); parameters: Intact protein LC/MS covalent labelling, fragments in pools of five, 200 uM each, 4 °C; details: 24 h, 4 °C, pool of five; 200 µM; covalent
# T4 construct: gene ALB
# Method: as §1
# in vitro [1] = assay: in vitro; parameters: species or system CCD841, HEK293; details: human, hb2 cells, read-out: HB-2 Cells Viability (%)
# in vitro [2] = assay: in vitro; parameters: species or system HB2, CCD841; details: human, hek293 cells
# in vitro [3] = assay: in vitro; parameters: species or system HB2, HEK293; details: human, ccd841 cells
# T1 sequence (Q92831 whole entry, the tested form may be a part): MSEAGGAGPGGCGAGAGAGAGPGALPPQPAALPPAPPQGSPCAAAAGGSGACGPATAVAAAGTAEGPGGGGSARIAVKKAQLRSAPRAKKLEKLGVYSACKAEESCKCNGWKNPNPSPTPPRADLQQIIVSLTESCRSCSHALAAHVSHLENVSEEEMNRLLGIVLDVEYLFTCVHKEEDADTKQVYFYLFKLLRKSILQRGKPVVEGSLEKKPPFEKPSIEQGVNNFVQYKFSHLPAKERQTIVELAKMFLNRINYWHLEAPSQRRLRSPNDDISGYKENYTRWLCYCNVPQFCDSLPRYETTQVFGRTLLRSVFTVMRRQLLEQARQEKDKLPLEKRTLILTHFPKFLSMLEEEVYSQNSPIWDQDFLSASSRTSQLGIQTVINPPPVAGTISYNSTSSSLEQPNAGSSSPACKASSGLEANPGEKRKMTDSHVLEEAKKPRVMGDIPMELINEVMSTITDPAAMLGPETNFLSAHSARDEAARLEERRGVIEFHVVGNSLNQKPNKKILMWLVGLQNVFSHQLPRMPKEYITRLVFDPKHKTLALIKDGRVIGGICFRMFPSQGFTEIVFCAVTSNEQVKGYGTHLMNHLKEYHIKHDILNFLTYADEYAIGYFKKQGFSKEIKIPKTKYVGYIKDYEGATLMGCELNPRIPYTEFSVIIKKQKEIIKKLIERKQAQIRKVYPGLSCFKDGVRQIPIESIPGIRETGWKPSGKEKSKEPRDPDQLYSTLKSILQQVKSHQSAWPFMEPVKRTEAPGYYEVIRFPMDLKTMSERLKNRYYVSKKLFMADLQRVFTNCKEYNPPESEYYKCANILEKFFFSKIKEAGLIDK
# T4 sequence (P02769 whole entry, the tested form may be a part): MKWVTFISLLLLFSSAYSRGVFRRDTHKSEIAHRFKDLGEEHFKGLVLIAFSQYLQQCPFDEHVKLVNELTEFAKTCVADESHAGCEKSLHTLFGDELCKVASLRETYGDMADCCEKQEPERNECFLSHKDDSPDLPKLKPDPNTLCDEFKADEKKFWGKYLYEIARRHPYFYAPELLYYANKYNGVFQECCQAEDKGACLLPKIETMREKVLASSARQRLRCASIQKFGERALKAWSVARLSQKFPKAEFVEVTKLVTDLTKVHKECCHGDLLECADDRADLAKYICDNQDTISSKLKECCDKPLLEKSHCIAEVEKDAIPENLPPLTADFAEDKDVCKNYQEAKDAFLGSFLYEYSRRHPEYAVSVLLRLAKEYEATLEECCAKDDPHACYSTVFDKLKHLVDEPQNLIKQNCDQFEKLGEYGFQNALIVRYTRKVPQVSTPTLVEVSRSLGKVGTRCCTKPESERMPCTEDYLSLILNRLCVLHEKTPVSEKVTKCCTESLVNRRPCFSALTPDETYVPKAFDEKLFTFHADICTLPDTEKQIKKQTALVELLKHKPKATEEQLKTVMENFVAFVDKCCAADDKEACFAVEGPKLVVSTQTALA
# T3 sequence (P0C024 14-235): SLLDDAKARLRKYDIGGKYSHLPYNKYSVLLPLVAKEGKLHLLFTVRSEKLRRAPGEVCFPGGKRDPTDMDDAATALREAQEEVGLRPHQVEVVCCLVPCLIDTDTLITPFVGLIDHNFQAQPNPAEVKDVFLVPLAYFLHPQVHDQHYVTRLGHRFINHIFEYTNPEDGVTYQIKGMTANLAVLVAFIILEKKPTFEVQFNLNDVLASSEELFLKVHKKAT
Compound,PCAF (PCAF),OTUB2 (OTUB2 (OTUB2A)),NUDT7 (NUDT7),BSA (BSA),"viability at 48 h, 10 µM (in vitro [1])","viability at 48 h, 10 µM (in vitro [2])","viability at 48 h, 10 µM (in vitro [3])"
C=CC(=O)Nc1ccc(F)cc1 [PCM-0102111],0,0,0,0.2,–,–,–
Cc1nc(NC(=O)CCl)sc1C [PCM-0102124],0,0,–,0,47.2%,32.2%,66.1%
O=C(CCl)Nc1nc2ccc(Br)cc2s1 [PCM-0102126],0,0.12,1,–,83.6%,92.5%,92.7%
O=C(CCl)N1c2ccccc2NC(=O)C12CCCC2 [PCM-0102159],0,0,0.18,0,–,–,–
O=C(CCl)N1N=C(c2ccco2)CC1c1cccs1 (stereo not shown) [PCM-0102182],0,0,–,0,14.9%,2%,18.2%
NS(=O)(=O)c1ccc2c(c1)CCN2C(=O)CCl [PCM-0102229],0,0.21,0,0,–,–,–
O=C(CCl)N1CCSC1c1ccccc1F (stereo not shown) [PCM-0102293],0,0.12,0.83,0,–,–,–
COc1cc2c(cc1OC)CN(C(=O)CCl)CC2 [PCM-0102317],0,0.14,0.1,0,–,–,–
CN(C(=O)CCl)c1ccccc1 [PCM-0102368],0,0,0,0,–,–,–
O=C(CCl)Nc1nncs1 [PCM-0102427],0,0,–,0,89.6%,99.2%,91%
O=C(CCl)N1CCC2CCCCC2C1 (stereo not shown) [PCM-0102474],0,0,–,0,24.3%,15.3%,54.4%
Cc1cc(SC#N)ccc1NC(=O)CCl [PCM-0102508],0,0,–,0,14.1%,27.8%,19.6%
C=CC(=O)NC(C)(C)c1cc(C(F)(F)F)on1 [PCM-0102528],0,0,–,0,99.9%,104%,109%
O=C(CCl)NCc1ccccc1 [PCM-0102538],0,0.28,0,0,–,–,–
C=CC(=O)N1CCCC(c2cnn(C)c2)C1 (stereo not shown) [PCM-0102641],0,0,–,0,107%,81.4%,115%
C=CC(=O)N1C2CCC1CC(O)(Cc1ccc(F)cc1F)C2 (stereo not shown) [PCM-0102642],0,0,–,0,102%,92.5%,103%
C=CC(=O)N1CCCC(Cn2ccnn2)C1 (stereo not shown) [PCM-0102647],0,0.09,–,0,101%,102%,102%
O=C(CCl)N(C1CC1)C1CCCc2ccccc21 (stereo not shown) [PCM-0102774],0,0,–,0,5.8%,4%,5.8%
C=CC(=O)Nc1cc(C)on1 [PCM-0102805],0,0,0,0,–,–,–

Compound,PCAF (PCAF),OTUB2 (OTUB2 (OTUB2A)),NUDT7 (NUDT7),BSA (BSA),"viability at 48 h, 10 µM (in vitro [1])","viability at 48 h, 10 µM (in vitro [2])","viability at 48 h, 10 µM (in vitro [3])"
O=C(CCl)NC1CCC2(CC1)OCCO2 [PCM-0102820],0,0.13,–,0,107%,111%,96.8%
C=CC(=O)N=C1N=C2C=CC(I)=CN2Cc2ccccc21 [PCM-0102846],0,0,–,–,92.6%,76.9%,87.7%
C=CC(=O)N1CCc2ncsc2C1 [PCM-0102847],0,0,0,0,–,–,–
C=CC(=O)Nc1ccc(C)c(F)c1 [PCM-0102878],0,–,0,0,102%,78.8%,97.9%
C=CC(=O)Nc1nc(-c2ccc(O)cc2)cs1 [PCM-0102884],0,0,–,0,75.2%,65.4%,80%
O=C(CCl)Nc1ccccc1O [PCM-0102907],0,–,0.36,0,106%,80.8%,95.4%
Cc1ccccc1CN1CCCN(C(=O)CCl)CC1.Cl [PCM-0102911],0,0,0,0,–,–,–
Cc1ccc(C(=O)NNC(=O)CCl)cc1 [PCM-0102924],0,–,0,0,97.6%,268%,123%
CC(=O)NC1CCCN(C(=O)CCl)C1 (stereo not shown) [PCM-0102934],0,–,0,0,100%,81.8%,90%
C=CC(=O)NCc1ccc2cnn(C)c2c1 [PCM-0102947],0,0,0,0,–,–,–
CN(Cc1cccc(Cl)c1)C(=O)CCl [PCM-0102976],0,0,–,0,18.9%,31.2%,67.9%
O=C(CCl)Nc1nc(-c2ccco2)cs1 [PCM-0102979],0,–,0.25,0,44%,66%,89.7%
CC(NC(=O)CCl)C(=O)O (stereo not shown) [PCM-0102990],0,–,0,0,102%,103%,115%
C=CC(=O)Nc1ccccc1C [PCM-0103000],0,0.12,0,0,–,–,–
O=C(CCl)NCC#Cc1ccccc1 [PCM-0103007],0,0.6,–,0,78.1%,59.4%,84.1%
C=CC(=O)Nc1ccc(OC)cc1 [PCM-0103034],0,0,0,0,–,–,–
Cc1ccc(NC(=O)CCl)c(C)c1 [PCM-0103041],0,–,0,0,75.7%,49.9%,70.5%
C=CC(=O)NC1(C#N)CCOC1 (stereo not shown) [PCM-0103049],0,–,0,0,99.3%,115%,95.7%
Cc1ccc(CN2CCCN(C(=O)CCl)CC2)cc1.Cl [PCM-0103056],0,0,0,0,–,–,–
